Entries after “also recorded” stand apart in the source; their conditions may differ.

Data set [1] relates to Sprague-Dawley rats. The conditions noted are these: rat, in vivo.
Data set [2] concerns Sprague-Dawley rats. As to conditions: rat, in vivo. This is another data set of the same source.
The test system of the next data set is weanling pigs. The conditions noted are these: pig, in vivo.

Consider “7α, 15-benzylidene-3α,8αdiacetoxy-9α,12β-dimethyltrichothecan-12α-ol [EN139508]”, for which, in the data set with Sprague-Dawley rats [1], the “duration of induced pattern” value was “approximately 30 minutes”, the “induction of fed pattern of gut motility” value was “induced a dose-dependent fed pattern of gut motility”, the “onset time of action (duodenal site D1)” value is listed as “approximately 60 seconds” and the “pattern of gut motor activity induced” value is on record as “induced a dose-dependent fed pattern of gut motility”. In addition, the “time of onset of action after administration” value with Sprague-Dawley rats [1] is reported as “approximately 60 seconds”.
For the compound `C[C@@H]1C[C@H]2O[C@@H]3[C@H](O)C[C@](C)([C@]24COC(c2ccccc2)O[C@@H]4C1=O)[C@@]3(C)O` (stereo partly drawn) [EN139522, 7α,15-benzylidene-9α, 12β-dimethyl-3α, 12α-dihydroxytricocethcan-8-one], in the data set with Sprague-Dawley rats [1], the “duration of action (fed pattern)” value was found to be 35 min, the “induction of fed pattern of gut motility” value was “induce a classic fed pattern” and the “time of onset of action after administration” value was determined as 20 s.
With `CC1=C[C@H]2O[C@@H]3[C@H](O)C[C@](C)([C@@]2(CO)[C@H](O)C1=O)[C@]31CO1` [DON, 3α,7α, 15-trihydroxy-12,13-epoxy-trichothec-9-en-8-one], the “induction of fed pattern of gut motility” value with Sprague-Dawley rats [1] is on record as “induced the fed pattern of gut motility”. Further, in the data set on Sprague-Dawley rats [2], the food consumption result was “immediate and sustained reduction; also recorded: concentration-dependant reduction; also recorded: decrease”; the weight gain result is “immediate and sustained reduction; also recorded: concentration-dependant reduction; also recorded: decrease”. For the same compound, in the data set on weanling pigs, the emesis entry is given as “some emesis occurred”; the “food consumption in the Day 1 AM meal following the treat” value is “decreased food consumption”; the “persistence of effect on food consumption at Day 1 PM and following meals” value is on record as “wore off by the next meal”.
On to “7α,15-benzylidene-9α,12β-dimethyltrichothecan-3α,8α,12α-triol [EN139502]”, for which, in the data set on Sprague-Dawley rats [1], the “delay before intensified fasting pattern” value is given as “approximately 5 min”, the “effect on fasting pattern of gut motility” value is “intensify or enhance the fasting pattern” and the “induction of fed pattern of gut motility” value is reported as “did not induce the fed pattern gut motility”.

Source of the values: patent US20040102514A1 (priority 2003, published 2004).
